In brackets after ≈: the same amount, converted by molar mass. Like-named read-outs stand apart in the source and are kept apart here.
Columns and labels:
relaxed plasmid pBR322 = test: DNA intercalation/binding assay; settings: pBR322 with calf thymus topoisomerase I, 30 minutes at 37° C.; read-out: Drug Concentration causing 50% Intercalation of DNA
Procedure: Compounds of the present invention were evaluated for their ability to intercalate/bind to DNA, using the procedure described in Nucleic Acids Research, 1987;15(15):6713. Specifically, 0.2 μg of relaxed plasmid pBR322 (Lucent, Ltd., Leicester, UK) was treated with 2 U of calf thymus topoisomerase I (Gibco/BRL, Gaithersburg, Md.) in buffer I (10 mM Tris-HCl (Ph 7.5), 50 mM KCl, 5 mM MgCl2, 1 mM Na2EDTA, 15 μg/mL bovine serum albumin) in the presence or absence of test compounds. Reaction were incubated for 30 minutes at 37° C.; volumes were typically 30 μL. Reactions were terminated by the addition of sodium dodecylsulfate (SDS) to 1% and proteinase K to 0.5 mg/mL final concentrations. After an additional 30 minutes at 37° C., one-tenth volume of 10×concentrated loading buffer (0.3% bromophenol blue, 16% Ficoll, 10 mM Na2HPO4) was added, and samples were loaded onto horizontal 0.8% agarose gels prepared in TAE buffer. Electrophoresis was at 22 V for 14 hours. Gels were then stained by soaking for 1.5 hours in deionized water containing 0.2 μg/mL of ethidium bromide, followed by destaining in deionized water for an additional 1.5 hours. Gels were examined and photographed following exposure to UV light. The concentration of the drug which induced a 50% change in the DNA by intercalation is represented by an intercalation IC50 and is recorded in Table 4.

S. aureus 29213 = test: Antibacterial assay, standard microtitration, MIC; assay type: cell-based; settings: Staphylococcus aureus, Gram positive, read-out: Minimum Inhibitory Concentrations, S. aureus 29213
Procedure: (§1) The compounds of the present invention were tested against an assortment of gram negative and gram positive organisms using standard microtitration techniques (Cohen, et al., Antimicrob. Agents Chemother., 1985;28:766; Heifetz, et al. Antimicrob. Agents Chemother., 1974;6:124).

E. coli B90 = test: Antibacterial assay, standard microtitration, MIC; assay type: cell-based; settings: Escherichia coli, Gram negative, read-out: Minimum Inhibitory Concentrations, E. coli B90
Procedure: as §1

B. subtilis RB1 = test: Antibacterial assay, standard microtitration, MIC; assay type: cell-based; settings: Bacillus subtilis, Gram positive, read-out: Minimum Inhibitory Concentrations, B. subtilis RB1
Procedure: as §1

S. pyogenes C203 = test: Antibacterial assay, standard microtitration, MIC; assay type: cell-based; settings: Streptococcus pyogenes, Gram positive, read-out: Minimum Inhibitory Concentrations, S. pyogenes C203
Procedure: as §1

E. coli MC4100 = test: Antibacterial assay, standard microtitration, MIC; assay type: cell-based; settings: Escherichia coli, Gram negative, read-out: Minimum Inhibitory Concentrations, E. coli MC4100
Procedure: as §1

E. coli To1C = test: Antibacterial assay, standard microtitration, MIC; assay type: cell-based; settings: Escherichia coli, TO1C, read-out: Minimum Inhibitory Concentrations, E. coli To1C
Procedure: as §1

E. coli gyrase = biological target: T1, E. coli gyrase (Escherichia coli, UniProt P0AES4+P0AES6); test: DNA gyrase supercoiling inhibition assay; assay type: biochemical
T1 construct: purchased Lucent, Ltd., Leicester, UK
T1 sequence (P0AES4 whole entry, one chain of several): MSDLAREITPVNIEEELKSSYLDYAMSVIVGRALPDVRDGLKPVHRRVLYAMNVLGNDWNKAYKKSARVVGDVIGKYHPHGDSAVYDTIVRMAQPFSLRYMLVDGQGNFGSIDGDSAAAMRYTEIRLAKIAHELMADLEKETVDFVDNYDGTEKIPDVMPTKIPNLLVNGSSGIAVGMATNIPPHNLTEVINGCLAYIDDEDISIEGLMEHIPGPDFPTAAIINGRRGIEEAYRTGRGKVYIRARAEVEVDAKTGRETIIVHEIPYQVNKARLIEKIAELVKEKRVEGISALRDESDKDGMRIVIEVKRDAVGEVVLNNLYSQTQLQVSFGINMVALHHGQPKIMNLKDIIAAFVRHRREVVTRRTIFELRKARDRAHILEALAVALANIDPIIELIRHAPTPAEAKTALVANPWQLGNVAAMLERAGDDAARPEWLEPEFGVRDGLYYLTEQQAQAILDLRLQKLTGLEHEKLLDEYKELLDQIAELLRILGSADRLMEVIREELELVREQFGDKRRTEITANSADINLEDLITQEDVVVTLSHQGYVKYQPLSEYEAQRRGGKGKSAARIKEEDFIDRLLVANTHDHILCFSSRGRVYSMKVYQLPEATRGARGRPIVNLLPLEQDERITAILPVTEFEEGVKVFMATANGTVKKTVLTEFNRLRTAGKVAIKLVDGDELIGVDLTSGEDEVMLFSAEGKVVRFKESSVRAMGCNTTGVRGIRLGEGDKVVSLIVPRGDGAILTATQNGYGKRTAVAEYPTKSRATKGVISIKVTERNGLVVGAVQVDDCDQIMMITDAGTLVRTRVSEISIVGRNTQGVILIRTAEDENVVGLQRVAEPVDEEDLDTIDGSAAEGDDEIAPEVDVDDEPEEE
Procedure: The effects of test agents on the activity of DNA gyrase was determined by the supercoiling inhibition assay, following reaction conditions recommended by the enzyme supplier (Lucent, Ltd., Leicester, UK), as follows. Reactions were performed in buffer G (35 mM Tris-HCL (pH 7.5), 24 mM KCl, 4 mM MgCl2, 2 mM DTT, 1.8 mM spermidine, 1 mM ATP, 0.1 mg/mL bovine serum albumin). 0.25 μg of relaxed plasmid pBR322 (Lucent, Ltd., Leicester, UK) was reacted with 1 U E. coli gyrase (Lucent, Ltd., Leicester, UK), in the absence or presence of drugs, for 30 minutes at 37° C. Reactions were stopped by the addition of SDS and proteinase K to respective final concentrations of 1% and 0.5 mg/mL. After an additional 30 minutes at 37° C., one-tenth volume of 10×loading buffer (0.3% bromophenol blue, 16% Ficoll, 10 mM Na2HPO4) was added, and reactions were loaded onto agarose gels and electrophoresed as described above for intercalation assays. The concentration of drug inhibiting 50% of the supercoiling activity of DNA gyrase is given as an IC50 and recorded in Table 2.

[1] = supercoiling of relaxed pBR322, 30 minutes at 37° C., read-out: DNA Gyrase IC50

SMILES: CN(C)CCN1C(=O)c2cccc3cc(N)cc(c23)C1=O [Amonafide, amonafide, reference compound]
- IC50 (relaxed plasmid pBR322): < 10 µM
- MIC (S. aureus 29213): 128 µg/mL (≈ 452 µM)
- MIC (E. coli B90): 16 µg/mL (≈ 56.5 µM)
- MIC (B. subtilis RB1): 64 µg/mL (≈ 226 µM)
- MIC (S. pyogenes C203): 4 µg/mL (≈ 14.1 µM)
- MIC (E. coli MC4100): 64 µg/mL (≈ 226 µM)

SMILES: O=C1c2cccc3cc([N+](=O)[O-])cc(c23)C(=O)N1O [Example 1, 2-Hydroxy-5-nitro-benzo[de]isoquinoline-1,3-dione]
- IC50 (relaxed plasmid pBR322): > 100 µM
- MIC (S. aureus 29213): 8 µg/mL (≈ 31 µM)
- MIC (E. coli B90): 2 µg/mL (≈ 7.75 µM)
- MIC (B. subtilis RB1): 8 µg/mL (≈ 31 µM)
- MIC (S. pyogenes C203): 32 µg/mL (≈ 124 µM)
- MIC (E. coli MC4100): 4 µg/mL (≈ 15.5 µM)

SMILES: O=C1c2cccc3c([N+](=O)[O-])ccc(c23)C(=O)N1O [Example 2, 2-Hydroxy-6-nitro-benzo[de]isoquinoline-1,3-dione]
- IC50 (relaxed plasmid pBR322): > 100 µM
- MIC (S. aureus 29213): 2 µg/mL (≈ 7.75 µM)
- MIC (E. coli B90): 4 µg/mL (≈ 15.5 µM)
- MIC (B. subtilis RB1): 4 µg/mL (≈ 15.5 µM)
- MIC (S. pyogenes C203): 4 µg/mL (≈ 15.5 µM)
- MIC (E. coli MC4100): 8 µg/mL (≈ 31 µM)

SMILES: Nc1ccc2c3c(cccc13)C(=O)N(O)C2=O [Example 7, 6-Amino-2-hydroxy-benzo[de]isoquinoline-1,3-dione]
- IC50 (relaxed plasmid pBR322): > 100 µM
- MIC (S. aureus 29213): 8 µg/mL (≈ 35.1 µM)
- MIC (E. coli To1C): 4 µg/mL (≈ 17.5 µM)
- MIC (E. coli B90): 4 µg/mL (≈ 17.5 µM)
- MIC (B. subtilis RB1): 16 µg/mL (≈ 70.1 µM)
- MIC (S. pyogenes C203): > 64 µg/mL
- MIC (E. coli MC4100): 4 µg/mL (≈ 17.5 µM)

SMILES: O=C1c2cccc3cc(F)cc(c23)C(=O)N1O [Example 11, 5-Fluoro-2-hydroxy-benzo[de]isoquinoline-1,3-dione]
- IC50 (relaxed plasmid pBR322): > 100 µM
- MIC (S. aureus 29213): 64 µg/mL (≈ 277 µM)
- MIC (E. coli B90): 2 µg/mL (≈ 8.65 µM)
- MIC (B. subtilis RB1): 8 µg/mL (≈ 34.6 µM)
- MIC (S. pyogenes C203): > 64 µg/mL
- MIC (E. coli MC4100): 8 µg/mL (≈ 34.6 µM)

SMILES: COc1cc2c3c(cccc3c1N)C(=O)N(O)C2=O [Example 30, 6-Amino-2-hydroxy-5-methoxy-benzo[de]isoquinoline-1,3-dione]
- IC50 (relaxed plasmid pBR322): > 100 µM
- MIC (S. aureus 29213): 4 µg/mL (≈ 15.5 µM)
- MIC (E. coli To1C): 2 µg/mL (≈ 7.74 µM)
- MIC (E. coli B90): 4 µg/mL (≈ 15.5 µM)
- MIC (B. subtilis RB1): 4 µg/mL (≈ 15.5 µM)
- MIC (S. pyogenes C203): 64 µg/mL (≈ 248 µM)
- MIC (E. coli MC4100): 8 µg/mL (≈ 31 µM)

SMILES: O=C1c2ccc(N3CCCC3)c3cc(Br)cc(c23)C(=O)N1O [Example 59, 5-Bromo-2-hydroxy-7-(pyrrolidin-1-yl)-benzo[de]isoquinoline-1,3-dione]
- IC50 (relaxed plasmid pBR322): > 100 µM
- IC50 (E. coli gyrase; [1]): 2.6 µM
- MIC (S. aureus 29213): 1 µg/mL (≈ 2.77 µM)
- MIC (E. coli To1C): 0.06 µg/mL (≈ 0.166 µM)
- MIC (E. coli B90): 0.06 µg/mL (≈ 0.166 µM)
- MIC (B. subtilis RB1): 0.5 µg/mL (≈ 1.38 µM)
- MIC (S. pyogenes C203): > 64 µg/mL
- MIC (E. coli MC4100): 2 µg/mL (≈ 5.54 µM)

SMILES: O=C1c2cccc3c(N4CCOCC4)c([N+](=O)[O-])cc(c23)C(=O)N1O [Example 81]
- IC50 (relaxed plasmid pBR322): 94 µM
- melting point: 272 to 274 °C
- IC50 (E. coli gyrase): 19 µM
- MIC (S. aureus 29213): 32 µg/mL (≈ 93.2 µM)
- MIC (E. coli To1C): 8 µg/mL (≈ 23.3 µM)
- MIC (E. coli B90): 8 µg/mL (≈ 23.3 µM)
- MIC (B. subtilis RB1): 8 µg/mL (≈ 23.3 µM)
- MIC (S. pyogenes C203): > 64 µg/mL
- MIC (E. coli MC4100): > 64 µg/mL

SMILES: NCC1CCN(c2c(Cl)cc3c4c(cccc24)C(=O)N(O)C3=O)C1 (stereo not drawn) [Example 85]
- IC50 (E. coli gyrase): 2.1 µM
- MIC (S. aureus 29213): 4 µg/mL (≈ 11.6 µM)
- MIC (E. coli To1C): 0.25 µg/mL (≈ 0.723 µM)
- MIC (E. coli B90): 0.5 µg/mL (≈ 1.45 µM)
- MIC (B. subtilis RB1): 1 µg/mL (≈ 2.89 µM)
- MIC (S. pyogenes C203): 4 µg/mL (≈ 11.6 µM)
- MIC (E. coli MC4100): 1 µg/mL (≈ 2.89 µM)

SMILES: CC1(CN)CCN(c2c(Cl)cc3c4c(cccc24)C(=O)N(O)C3=O)C1 (stereo not drawn) [Example 89]
- IC50 (E. coli gyrase): 5.5 µM
- MIC (S. aureus 29213): 1 µg/mL (≈ 2.78 µM)
- MIC (E. coli To1C): 0.5 µg/mL (≈ 1.39 µM)
- MIC (E. coli B90): 1 µg/mL (≈ 2.78 µM)
- MIC (B. subtilis RB1): 1 µg/mL (≈ 2.78 µM)
- MIC (S. pyogenes C203): 2 µg/mL (≈ 5.56 µM)
- MIC (E. coli MC4100): 4 µg/mL (≈ 11.1 µM)

SMILES: CCCNC(=O)Nc1cc2c3c(cccc3c1)C(=O)N(O)C2=O [Example 102]
- melting point: > 250 °C
- MIC (S. aureus 29213): > 64 µg/mL
- MIC (E. coli To1C): 16 µg/mL (≈ 51.1 µM)
- MIC (E. coli B90): 32 µg/mL (≈ 102 µM)
- MIC (B. subtilis RB1): 16 µg/mL (≈ 51.1 µM)
- MIC (S. pyogenes C203): > 64 µg/mL
- MIC (E. coli MC4100): > 64 µg/mL

SMILES: O=C1c2cccc3c4c(cc(c23)C(=O)N1O)OCO4 [Example 122, 2-Hydroxy-5,6-methylenedioxy-benzo[de]isoquinoline-1,3-dione]
- IC50 (relaxed plasmid pBR322): > 100 µM
- IC50 (E. coli gyrase; [1]): 19 µM
- MIC (S. aureus 29213): 8 µg/mL (≈ 31.1 µM)
- MIC (E. coli To1C): 0.5 µg/mL (≈ 1.94 µM)
- MIC (E. coli B90): 0.5 µg/mL (≈ 1.94 µM)
- MIC (B. subtilis RB1): 2 µg/mL (≈ 7.78 µM)
- MIC (S. pyogenes C203): > 64 µg/mL
- MIC (E. coli MC4100): 2 µg/mL (≈ 7.78 µM)

Reference: US6362181B1, “Isoquinolones” (Warner-Lambert Company, priority 1996, dated 2002)
